This is an account of results in US20030114362A1, “Penta-or tetrapeptide binding to somatostatin receptors and the use of the same” (Novaspin Biotech GmbH, priority 2001, published 2003).

The test system of assay [1] is Substance P release from sensory nerve terminals. In words: Release of Substance P in vitro from electrically stimulated rat tracheae (RIA). The following applies: for Substance P release, stim. / inhibition of Substance P release / Substance P release, post stim. / Substance P release, pre stim.: 500 nmol; for Substance P release, stim.: electrical field stimulation 40 V, 0.1 ms, 10 Hz, 120 s; for Substance P release, stim. / Substance P release, post stim. / Substance P release, pre stim.: released amount of peptide per tissue weight; for inhibition of Substance P release: electrically evoked release; for Substance P release, post stim.: poststimulated fraction; for Substance P release, pre stim.: prestimulated fraction; for Substance P release evoked by electrical stimulation of sensory nerve terminals (in words): compared with TT-232. On the procedure: Effect of TG, SGA, TR, and TT-232 on the Release of Substance P in vitro Methods:
After exsanguination the tracheae of 2-2 female Wistar rats were removed and perfused (1 ml min^−1) in an organ bath (1.8 ml) at 37° C. for 60 min with oxygenated (95% O2 and 5% CO2) Krebs solution of the following composition (in mM): NaCl 119, NaHCO3 25, KH2PO4 1.2, MgSO4 1.5, KCl 4.7, CaCl2 2.5, glucose 11. After stopping the flow the solution was changed 3 times for 8 min (prestimulated—stimulated—poststimulated). Electrical field stimulation (40 V, 0.1 ms, 10 Hz, 120 s) was performed to induce release of sensory neuropeptides from the tissue pieces in the presence or absence of SGTG, SGA, SGTH, or TT-232 (500-500 nM). The fractions were collected in ice-cold tubes and the wet weight of the tracheae were measured. Concentration of SP was determined by specific radioimmunoassay (RIA) methods developed in our laboratory (Németh, J., Oroszi, G., Thán, M., Helyes, Zs., Pintér, E., Farkas, B. and Szolcsányi, J.: Substance P radioimmunoassay for quantitative characterization of sensory neurotransmitter release. Neurobiology, 7, 437-444, 1999) and was expressed as the released amount of peptide per tissue weight.

Another assay relates to A431 and Panc-1. The following applies: number of cell deaths after 6 h of incubation. On the procedure: The Compounds shown below were tested on two cell-lines, A431 (A. T. C. C. reference No. CRL-1555, c.f. American Type Culture Collection, http://phage.atcc.org/cgi-bin/searchengine/longview.cgi?view=ce,663682,CRL-1555&text=a-431, 2001, pp. http://phage.atcc.org/cgi-bin/searchengine/longview.cgi?view-ce,663682,CRL-661555&text=a-663431; http://phage.atcc.org/cgi-bin/searchengine/longview.cgi?view=ce,663682,CRL-661555&text=a-663431) (an epidermoid cancer) and Panc-1 (A.T.C.C. reference No. CRL-1469, c.f. American Type Culture Collection, http://phage.atcc.org/cgi-bin/searchengine/longview.egi?view=ce,609764,CRL-1469&text=panc-1) (a well differentiated pancreatic adenocarcinoma), both of human origin, using the MTT (Carmichael J et al. Cancer Res. 47(4): pp. 936-42, 1987.) and MB (Oliver M H, Harrison N K, Bishop J E, Cole P J, Laurent G J; J Cell Sci 1989 March;92 ( Pt 3):513-8) assays. [drawing 25]
Each compound was tested under […]: 6 h (to exclude necrosis) and 48 h to see inhibition of proliferation and apoptosis.

In assay [2] the test system is A431 (an epidermoid cancer). Particulars: A431, MB and MTT assays.
Procedure: (§3) Each compound was tested under 4 conditions: 6 h (to exclude necrosis) and 48 h to see inhibition of proliferation and apoptosis.
The test system of assay [3] is Panc-1 (a well differentiated pancreatic adenocarcinoma). The following applies: Panc-1, MB and MTT assays. A general note: Tetrazolium assays rely on reduction of a dye to a coloured formazan, in cell work by metabolically active cells.
Procedure: as §3
Assay [4] has as its system sensitive cell line Klon 2. In words: XTT/PMS cytotoxicity assay, drug sensitive hepatoma cells. Particulars: Klon 2, XTT/PMS, 72 hrs incubation. It counts as cell-based, rat. The source says:
(§1) Rat hepatoma cells were cultivated in a F 12 medium (GibcoBRL), to which 5% of foetal calf serum had been added, in a atmosphere saturated with humidity (>95%) and having a CO2 content of 8% in air. The cell line named “Klon 2” was isolated by Venetianer et al. (Cytogentc.Cell.Genet 28:280-283, 1980). The cell line 2 (10×80)T1 is a sub-clone of Klon 2 having a moderate multi-drug resistance 8 (Pirity, Hever-Szabo and Venetianer, Cytotechnology 19:207-214, 1996). The degree of resistance of cell line 2 (10×80) was determined by a Niagara blue exclusion test, the cells being exposed to different concentrations of the following cytostatic agents for 72 hrs.
(§2) The XTT/PMS Assay (Scuderio et al., Cancer Res. 48:4827-4833, 1988; Roehm et al., J.Immun.Methods 142:257-265, 1991) was utilised to determine the cytotoxicity of the compounds. For this purpose, the viability of the sensitive cell line Klon 2 was tested in comparison with that of the multi-drug resistant cell line Klon 2 (10×80). An identical number of cells was applied to a 96 cell culture plate. […] The cell viability was determined by triple determination for each concentration by means of the XTT/PMS dye test (Scuderio et al., Cancer Res. 48:4827-4833, 1988; Roehm et al., J.Immun.Methods 142:257-265,1991). […]

Assay [5] concerns multi-drug resistant cell line Klon 2 (10×80). Description: XTT/PMS cytotoxicity assay, multidrug resistant hepatoma cells. It counts as cell-based, rat. The following applies: 72 hrs incubation.
Text: as §1, §2

Starred links: 1 amine or outer side, 2 acyl side, 3 side chain; linkers in the order of their positions; H or OH if unused. Non-standard residues stand in square brackets, D forms with d. Residues, ends and D or L forms follow the SMILES beside them. ξ: configuration not given here. *: point of attachment. X3 = CC1(C)O[C@H]2O[C@H](C(=O)[*:2])[C@@H](N[*:1])[C@H]2O1; X1 = CC1(C)OC2[C@H](OC(C(O)C(=O)[*:2])[C@H]2N[*:1])O1; X2 = CC1(C)OC2[C@H](O[C@H](C(=O)[*:2])[C@H]2N[*:1])O1; Bip = N[C@@H](Cc1ccc(-c2ccccc2)cc1)C(=O)O; Trt = c1ccc(C(c2ccccc2)(c2ccccc2)*)cc1; Bta = N[C@@H](Cc1csc2ccccc12)C(=O)O; ξW = NC(Cc1c[nH]c2ccccc12)C(=O)O; Thr(3ξ) = CC(O)[C@H](N)C(=O)O; ξY = NC(Cc1ccc(O)cc1)C(=O)O; Nle = CCCC[C@H](N)C(=O)O; ξF = NC(Cc1ccccc1)C(=O)O; ξK = NCCCCC(N)C(=O)O; Bn = c1ccc(C*)cc1

As to `CC1(C)OC2[C@H](O[C@@H]3C(=O)N[C@@H](Cc4ccccc4)C(=O)N[C@@H](Cc4c[nH]c5ccccc45)C(=O)N[C@@H](CCCCN)C(=O)N[C@@H]23)O1` (stereo partly drawn) [SGA, cyclo[-Phe-Trp-Lys-Z1-]], in assay [1], the “Substance P release, stim.” value turned out to be 4.81; the “inhibition of Substance P release” value is recorded as 28.4%; the “Substance P release, post stim.” value was 2.07; the “Substance P release, pre stim.” value came to 1.81. Further, the “Substance P release evoked by electrical stimulation of sensory nerve terminals (in words)” value in assay [1] is on record as “inhibited”.
The term IC50 denotes the concentration at which inhibition is half-maximal. In the case of `CCCC[C@@H]1NC(=O)[C@@H](Cc2c[nH]c3ccccc23)NC(=O)[C@H](Cc2ccc(O)cc2)NC(=O)[C@H]2O[C@@H]3OC(C)(C)O[C@@H]3[C@@H]2NC(=O)[C@H]([C@@H](C)OC(c2ccccc2)(c2ccccc2)c2ccccc2)NC1=O` [SGnc 7, cyclo[-D-Trp-Nle-Thr(OTrt)-Z1-Tyr-]] (cyclo([Nle]T(Trt)[X3]Y[dW])), the Necrosis result in the assay on A431 and Panc-1 is on record as “none”. Also, the IC50 in assay [2] and in assay [3] was 10 µM in each case.
For the compound `C[C@@H](OC(c1ccccc1)(c1ccccc1)c1ccccc1)C1NC(=O)[C@H](CCCCN)NC(=O)[C@H](Cc2csc3ccccc23)NC(=O)[C@H](Cc2ccc(O)cc2)NC(=O)[C@H]2O[C@@H]3OC(C)(C)OC3[C@@H]2NC1=O` (some centres unmarked) [SGnc 8], the Necrosis result in the assay on A431 and Panc-1 is reported as “some”. In addition, the IC50 in assay [2] stood at 50 µM; in assay [3] it was 40 µM.
In the case of `C[C@@H](OC(c1ccccc1)(c1ccccc1)c1ccccc1)C1NC(=O)[C@H](CCCCN)NC(=O)[C@H](Cc2ccc3ccccc3c2)NC(=O)[C@H](Cc2ccc(O)cc2)NC(=O)[C@H]2O[C@@H]3OC(C)(C)OC3[C@@H]2NC1=O` (some centres unmarked) [SGnc 10], in the assay on A431 and Panc-1, the Necrosis entry is “some”. Besides, the IC50 in assay [2] was 55 µM; in assay [3], 40 µM.
On the same counts, the results for `CC(OC(c1ccccc1)(c1ccccc1)c1ccccc1)[C@@H]1NC(=O)C(CCCCN)NC(=O)[C@@H](Cc2c[nH]c3ccccc23)NC(=O)C(Cc2ccccc2)NC(=O)C(O)C2O[C@@H]3OC(C)(C)OC3[C@@H]2NC1=O` (stereo partly drawn) [SGnc 18, c[-D-Trp-Lys-Thr(OTrt)-Z2-Phe-]] (cyclo([Thr(3ξ)](Trt)[X1][ξF][dW][ξK])) are “some”, approximately 50 µM and approximately 50 µM.
As to `CC1(C)OC2[C@H](OC3C(O)C(=O)NC(Cc4ccccc4)C(=O)N[C@H](Cc4c[nH]c5ccccc45)C(=O)NC(CCCCN)C(=O)N[C@@H](Cc4ccc(-c5ccccc5)cc4)C(=O)N[C@H]32)O1` (stereo partly drawn) [SGnc 20, cyclo[-D-Trp-Lys-Thr(OTrt)-Z2-Phe-]] (cyclo([Bip][X1][ξF][dW][ξK])), in the assay on A431 and Panc-1, the Necrosis entry is “some”. Besides, the IC50 in assay [2] and in assay [3] was approximately 60 µM in each case.
On to `CC(OCc1ccccc1)[C@@H]1NC(=O)C(CCCCN)NC(=O)C(Cc2c[nH]c3ccccc23)NC(=O)C(Cc2ccc(O)cc2)NC(=O)[C@H]2O[C@@H]3OC(C)(C)OC3[C@@H]2NC1=O` (stereo partly drawn) [SGnc 38, cyclo[-D-Trp-Lys-Thr(OBzl)-Z1-Tyr-]] (cyclo([Thr(3ξ)](Bn)[X2][ξY][ξW][ξK])), for which the Necrosis result with A431 and Panc-1 was “some”. Further, the IC50 in assay [2] and in assay [3] was approximately 50 µM throughout.
With `CC(OC(c1ccccc1)(c1ccccc1)c1ccccc1)[C@@H]1NC(=O)C(CCCCN)NC(=O)[C@@H](Cc2csc3ccccc23)NC(=O)C(Cc2ccc(O)cc2)NC(=O)[C@H]2O[C@@H]3OC(C)(C)OC3[C@@H]2NC1=O` (some centres unmarked) [SGnc 50], in the assay with A431 and Panc-1, the Necrosis result was “none”. Besides, the IC50 in assay [2] and in assay [3] was approximately 38 µM in each case.
Take `CC1(C)OC2[C@H](O[C@@H]3C(=O)NC(Cc4ccc(O)cc4)C(=O)N[C@@H](Cc4csc5ccccc45)C(=O)NC(CCCCN)C(=O)N[C@@H](Cc4ccc(OCc5ccccc5)cc4)C(=O)N[C@@H]23)O1` (some centres unmarked) [SGnc 51] (cyclo([Bta][ξK]Y(Bn)[X2][ξY])): in the assay with A431 and Panc-1, the Necrosis entry was “almost none”. Further, the IC50 in assay [2] and in assay [3] was 35 µM in each case.
As to c[-D-Trp-Lys-1-Nal-Z1-Phe-] [SGnc 15], the Necrosis result with A431 and Panc-1 was “some”. The IC50 in assay [2] and in assay [3] was approximately 110 µM in each case.
Consider c[-D-Trp-Lys-Bpa-Z1-Phe-] [SGnc 14], for which the Necrosis entry with A431 and Panc-1 is reported as “almost none”. For the same compound, the IC50 in assay [2] and in assay [3] was approximately 100 µM throughout.
As to c[-D-Trp-Lys-Thr(OTrt)-Z1-Tyr-], the IC50 in assay [4] turned out to be 31 µM. This compound returned a half-inhibitory concentration (IC50) in assay [5] of 25 µM. Moreover, in assay [1], the “Substance P release, stim.” value was found to be 5.14; the “inhibition of Substance P release” value was 19.3%; the “Substance P release, post stim.” value was 2.31; the “Substance P release, pre stim.” value amounted to 1.76. Moreover, the “Substance P release evoked by electrical stimulation of sensory nerve terminals (in words)” value in assay [1] was “inhibited”.
Regarding c[-Tyr-Trp-Lys-Thr-Z1-], the IC50 in assay [4] is 75 µM; in assay [5], 47 µM.
